# Laboratory results reported in US20090312367A1, “COMBINATION OF MODAFINIL AND AN ANTAGONIST OR INVERSE AGONIST OF THE H3 RECEPTOR” (Bioprojet, priority 2006, published 2009).
# System: cats with MPTP-induced parkinsonism
# Experiment: Parkinson's disease model: wakefulness in cats with MPTP-induced parkinsonism
# Type: in vivo
# Settings: MPTP-treated cats displaying sleepiness
# From the text: The inventors also investigated the combination of 1-{3-[3-(4-chlorophenyl)propoxy]propyl}piperidine and modafinil on wakefulness in cats with MPTP-induced parkinsonism. MPTP is a neurotoxin which selectively destroys dopaminergic neurons in the mesencephalon. MPTP-treated animals display sleepiness similar to that seen in many patients.
compound,measurement,value
"NC(=O)C[S+]([O-])C(c1ccccc1)c1ccccc1 (stereo not shown) [modafinil, 2-benzhydrylsulfinylthanamide]",wakefulness,only a modest improvement in wakefulness
